Calls of active or inactive are those of the source. The rule behind the calls is not given here.
Test system: CCRIS mutagenicity, Ames/micronucleus/aberration tests
Assay: CCRIS mutagenicity studies
[1] = Test System: AMES SALMONELLA TYPHIMURIUM, Strain/Indicator: TA98, Metabolic Activation: NONE, Method: PREINCUBATION
[2] = Test System: AMES SALMONELLA TYPHIMURIUM, Strain/Indicator: TA100, Metabolic Activation: NONE, Method: PREINCUBATION
[3] = Test System: AMES SALMONELLA TYPHIMURIUM, Strain/Indicator: TA100, Metabolic Activation: NONE, Method: STANDARD PLATE

Measured: mutagenic call

N[C@@H](CC(=O)O)C(=O)O
inactive: End Point: In vivo micronucleus, Test System: Bone marrow erythrocytes, Species: Mouse, Strain/Sex: Crl:CD1 (ICR)/Male and female, Route: Oral inactive; negative | Test System: AMES SALMONELLA TYPHIMURIUM, Strain/Indicator: TA97, Metabolic Activation: NONE, Method: PREINCUBATION inactive; negative | Test System: AMES SALMONELLA TYPHIMURIUM, Strain/Indicator: TA97, Metabolic Activation: RAT, LIVER, S-9, AROCLOR 1254, Method: PREINCUBATION inactive; negative | [1] inactive; negative | Test System: AMES SALMONELLA TYPHIMURIUM, Strain/Indicator: TA98, Metabolic Activation: RAT LIVER S-9, PHENOBARBITAL AND BETA-NAPHTHOFLAVONE, Method: PREINCUBATION inactive; negative | [2] inactive; negative | Test System: AMES SALMONELLA TYPHIMURIUM, Strain/Indicator: TA100, Metabolic Activation: RAT LIVER S-9, PHENOBARBITAL AND BETA-NAPHTHOFLAVONE, Method: PREINCUBATION inactive; negative | Test System: AMES SALMONELLA TYPHIMURIUM, Strain/Indicator: TA102, Metabolic Activation: NONE, Method: PREINCUBATION inactive; negative | Test System: AMES SALMONELLA TYPHIMURIUM, Strain/Indicator: TA102, Metabolic Activation: RAT, LIVER, S-9, AROCLOR 1254, Method: PREINCUBATION inactive; negative | Test System: AMES SALMONELLA TYPHIMURIUM, Strain/Indicator: TA1535, Metabolic Activation: NONE, Method: PREINCUBATION inactive; negative | Test System: AMES SALMONELLA TYPHIMURIUM, Strain/Indicator: TA1535, Metabolic Activation: RAT LIVER S-9, PHENOBARBITAL AND BETA-NAPHTHOFLAVONE, Method: PREINCUBATION inactive; negative | Test System: AMES SALMONELLA TYPHIMURIUM, Strain/Indicator: TA1537, Metabolic Activation: NONE, Method: PREINCUBATION inactive; negative | Test System: AMES SALMONELLA TYPHIMURIUM, Strain/Indicator: TA1537, Metabolic Activation: RAT LIVER S-9, PHENOBARBITAL AND BETA-NAPHTHOFLAVONE, Method: PREINCUBATION inactive; negative | Test System: Ames Salmonella typhimurium, Strain/Indicator: TA98, Species: None, Method: Standard plate inactive; negative | Test System: Ames Salmonella typhimurium, Strain/Indicator: TA98, Species: Rat, Liver, S-9, Aroclor 1254 (10%), Method: Standard plate inactive; negative | Test System: Ames Salmonella typhimurium, Strain/Indicator: TA100, Species: None, Method: Standard plate inactive; negative | Test System: Ames Salmonella typhimurium, Strain/Indicator: TA100, Species: Rat, Liver, S-9, Aroclor 1254 (10%), Method: Standard plate inactive; negative | Test System: Ames Salmonella typhimurium, Strain/Indicator: TA1535, Species: None, Method: Standard plate inactive; negative | Test System: Ames Salmonella typhimurium, Strain/Indicator: TA1535, Species: Rat, Liver, S-9, Aroclor 1254 (10%), Method: Standard plate inactive; negative | Test System: Ames Salmonella typhimurium, Strain/Indicator: TA1537, Species: None, Method: Standard plate inactive; negative | Test System: Ames Salmonella typhimurium, Strain/Indicator: TA1537, Species: Rat, Liver, S-9, Aroclor 1254 (10%), Method: Standard plate inactive; negative | Test System: E. coli, Strain/Indicator: WP2 uvrA, Metabolic Activation: None, Method: Standard plate inactive; negative | Test System: E. coli, Strain/Indicator: WP2 uvrA, Metabolic Activation: Rat, Liver, S-9, Aroclor 1254 (10%), Method: Standard plate inactive; negative | Test System: E.COLI, Strain/Indicator: WP2UVRA/PKM101, Metabolic Activation: NONE, Method: PREINCUBATION inactive; negative | Test System: E.COLI, Strain/Indicator: WP2UVRA/PKM101, Metabolic Activation: RAT LIVER S-9, PHENOBARBITAL AND BETA-NAPHTHOFLAVONE, Method: PREINCUBATION inactive; negative

COC(=O)c1oc(NO)c(-c2ccccc2)c1-c1ccccc1
inactive: [1] inactive; negative | Test System: AMES SALMONELLA TYPHIMURIUM, Strain/Indicator: TA98, Metabolic Activation: RAT, LIVER, S-9, AROCLOR, Method: PREINCUBATION inactive; negative | [2] inactive; negative | Test System: AMES SALMONELLA TYPHIMURIUM, Strain/Indicator: TA100, Metabolic Activation: RAT, LIVER, S-9, AROCLOR, Method: PREINCUBATION inactive; negative

Cc1ccc(CN2C3c4ccccc4-c4ccccc4C32)cc1 (centres undefined)
active: [3] active; positive

Clc1cccc2oc3ccccc3c12
inactive: Test System: AMES SALMONELLA TYPHIMURIUM, Strain/Indicator: TA98, Metabolic Activation: NONE, Method: STANDARD PLATE inactive; negative | Test System: AMES SALMONELLA TYPHIMURIUM, Strain/Indicator: TA98, Metabolic Activation: RAT, LIVER, S-9, PHENOBARBITAL AND NAPHTHOFLAVONE, Method: STANDARD PLATE inactive; negative | [3] inactive; negative | Test System: AMES SALMONELLA TYPHIMURIUM, Strain/Indicator: TA100, Metabolic Activation: RAT, LIVER, S-9, PHENOBARBITAL AND NAPHTHOFLAVONE, Method: STANDARD PLATE inactive; negative

From PubChem BioAssay AID1259407 (Chemical Carcinogenesis Research Information System (CCRIS), 2018)
